{
  "source": "patent US20040038888A1",
  "about": "(priority 2002, published 2004)",
  "key": {"[1]": {"system": "CREB phosphorylation", "assay": "Western blot of phosphorylated CREB, adult mouse NSC, non-adherent", "format": "cell-based", "details": "10 nM PACAP", "protocol": "Adult mouse NSC and aHNSC were prepared and cultured as stated in Example 2 (Method A) and Example 1 (Method A). Cultures were exposed to either 10 nM PACAP or EGF (1 nM) and FGF (1 nM) for the times indicated. After treatment, the cells were lysed in lysis buffer, as shown in Patrone et al. (Patrone, Andersson et al. 1999). DNA content was detemined by the use of a Pico Green-kit for ds DNA quantitation of cell extracts. Total protein measurements were performed with Nano Orange-kit. Equal amounts of protein were run on a gradient gel 4-12% Bis-Tris gel (NuPage/Mops buffer) and transferred to a nitrocellulose membrane. Western blot was performed and phosphorylated CREB was labelled using a rabbit anti phospho-CREB (1:1000, Upstate biotechnology), a secondary anti rabbit HRP antibodies (1:10.000). Phosphorylated CREB protein bands (43 kD) were detected using the ECL-kit (Amersham)."}, "[2]": {"system": "primary adult NSC", "assay": "Self renewal and multipotency assay", "format": "cell-based, mouse", "details": "PACAP 100 nM", "protocol": "Anterior lateral wall of the lateral ventricle was dissociated as described in Example 2 (Method A), and the cells resuspended in Neurosphere medium without EGF. The cell suspension was divided into a 24-well plate in triplicate and PACAP added to a final concentration of 100 nM. After 7 days, the neurospheres were split into single cells, as described in Example 1 (Method A), but in the absence of EGF. The cells were replated as single cells, PACAP added to 100 nM and incubated a further 7 days. The cells were passaged one further time, and plated as single cells in Neurosphere medium supplemented with 1% Fetal Calf Serum (Gibco) and 100 nM PACAP (Bachem) onto poly-D-lysine plates. The cells were incubated over-night in which time they adhered to the poly-D-lysine plates and the medium was changed to Neurosphere medium supplemented with 100 nM PACAP38, but absent of Fetal Calf Serum. The cells were cultured for a further 3 days, after which they were washed twice in PBS (Gibco) and fixed for 15 min at room temperature with 4% Formaldehyde (Sigma) and permeabilised for 20 minutes at room temperature in 0,1% Triton X-100 (Sigma) in PBS. After fixation and permeabilisation the cells were labelled with mouse monoclonal anti β-III Tubulin (1:1000 Promega), rabbit anti GFAP (1:500 Sigma), and mouse anti CNPase (1:500 Sigma). Primary antibodies were visualized with anti mouse Texas-Red and anti rabbit FITC (1:500 Vector Laboratories). All antibodies were diluted in PBS with 0,1% Triton X-l00."}},
  "data": [
    {"substance": "pituitary adenylate cyclase-activating polypeptide [PACAP]", "values": [
      {"measurement": "CREB phosphorylation", "setting": "[1]; 15 min exposure", "value": "upregulated"},
      {"measurement": "CREB phosphorylation", "setting": "[1]; 240 min", "value": "return to basal levels"},
      {"measurement": "multiply-passaged neurospheres compared to EGF-treated neurospheres", "setting": "[2]", "value": "no relevant differences"},
      {"measurement": "self-renewal (secondary and tertiary neurospheres)", "setting": "[2]; absence of other mitogens", "value": "retained their ability to self-renew"},
      {"measurement": "multipotentiality (β-III Tubulin, GFAP, CNPase immunoreactivity)", "setting": "[2]; spontaneous differentiation on poly-D-lysine", "value": "retaining the potential of generating all the cells of the CNS"}
    ]}
  ]
}
